According to PMC10762035, “Molecular basis of human trace amine-associated receptor 1 activation” (Nature Communications, 2024):
Positions count from the first letter of the chain named. Values joined by “and” are separate entries in the source; they are usually repeats but may differ in a detail not shown here. Equal entries are not always repeated. Where two headings read alike, the source gives them in different places.

Legend:
Type in all cases: cell-based
[1] = target: T1, hTA1 C178S (Homo sapiens, UniProt Q96RJ0, C178S); assay: GloSensor cAMP accumulation assay, C178S mutant; conditions: for Normalized Luminescence Counts: C178S (N=2), log[Agonist]
T1 construct: expressed in transfected cells; host or cells: HEK293T
T1 sequence (Q96RJ0 1-339 C178S): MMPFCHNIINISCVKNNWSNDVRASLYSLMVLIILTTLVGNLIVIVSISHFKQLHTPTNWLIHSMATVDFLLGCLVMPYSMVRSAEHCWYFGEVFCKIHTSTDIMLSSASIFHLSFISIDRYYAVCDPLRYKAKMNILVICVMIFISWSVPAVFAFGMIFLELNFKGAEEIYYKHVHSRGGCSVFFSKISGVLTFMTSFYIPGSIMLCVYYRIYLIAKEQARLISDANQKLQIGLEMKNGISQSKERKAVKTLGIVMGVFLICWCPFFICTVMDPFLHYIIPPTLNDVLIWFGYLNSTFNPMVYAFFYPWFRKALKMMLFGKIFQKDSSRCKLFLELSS

[2] = target: T2, hTA1 W264F (Homo sapiens, UniProt Q96RJ0, W264F); assay: GloSensor cAMP accumulation assay, W264F mutant; conditions: W264F;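 note: cells transiently transfected with receptor plus GloSensor, luminescence read 30 min after agonist addition at room temperature, concentration-response curves fitted by log(agonist) vs response regression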
T2 construct: expressed in transfected cells; host or cells: HEK293T
T2 sequence (Q96RJ0 1-339 W264F): T1 sequence (Q96RJ0 1-339 C178S) with S178C, W264F

[3] = target: T3, hTA1 C13S (Homo sapiens, UniProt Q96RJ0, C13S); assay: GloSensor cAMP accumulation assay, C13S mutant; conditions: C13S, n=2
T3 construct: expressed in transfected cells; host or cells: HEK293T
T3 sequence (Q96RJ0 1-339 C13S): T1 sequence (Q96RJ0 1-339 C178S) with C13S, S178C

[4] = target: T4, hTA1 V184P (Homo sapiens, UniProt Q96RJ0, V184P); assay: GloSensor cAMP accumulation assay, V184P mutant
T4 construct: expressed in transfected cells; host or cells: HEK293T
T4 sequence (Q96RJ0 1-339 V184P): T1 sequence (Q96RJ0 1-339 C178S) with S178C, V184P

[5] = target: T5, hTA1 C5S (Homo sapiens, UniProt Q96RJ0, C5S); assay: GloSensor cAMP accumulation assay, C5S mutant; conditions: C5S, n=2
T5 construct: expressed in transfected cells; host or cells: HEK293T
T5 sequence (Q96RJ0 1-339 C5S): T1 sequence (Q96RJ0 1-339 C178S) with C5S, S178C

[6] = read-out: Span ± SEM (Emax normalized to β-PEA)

With CN1CC2c3ccccc3Oc3ccc(Cl)cc3C2C1 (centres unmarked) [asenapine] the “Normalized Luminescence Counts” value ([1]; Asenapine, M -5) was 75.4368 and 92.2127 and 77.6331 and 138.575 and 114.073 and 74.6126, the “Normalized Luminescence Counts” value ([1]; Asenapine, M -5.522) was 79.5957 and 78.8948 and 73.2872 and 121.163 and 122.988 and 72.6381 and the “Normalized Luminescence Counts” value ([1]; Asenapine, M -6) was 71.3246 and 64.9226 and 70.9975 and 119.907 and 121.163 and 96.5417. For the same molecule, the “Normalized Luminescence Counts” value ([1]; Asenapine, M -6.522) was 41.1373 and 42.2588 and 39.3616 and 54.3289 and 32.5494 and 43.2597, the “ΔpEC50 values (each mutant value - WT average), Mean” value ([1]; C178S, Asenapine) was -0.5777 and -0.5455 and the “Emax values, Mean” value ([1]; C178S, Asenapine, per experiment, 3 replicates) was 87.2953 and 116.77. The EC50 ([1]; C178S, Asenapine, per experiment, 3 replicates, read-out: pEC50 values Mean (converted)) was 0.327 µM and 0.304 µM, the EC50 ([1]; C178S, n=2, read-out: EC50) was 0.315 µM and the Emax ([1]; C178S, n=2, read-out: Span ± SEM (Emax normalized to β-PEA)) was 102%. The Emax ([1]; C178S, relative to β-PEA, read-out: Emax) was 102%, the “ΔpEC50 values (each mutant value - WT average), Mean” value ([2]; Asenapine) was -2.045 and -2.029 and the “Emax values, Mean” value ([2]; Asenapine, per experiment, 3 replicates) was 34.2126 and 58.204. The EC50 ([2]; Asenapine, per experiment, 3 replicates, read-out: pEC50 values Mean (converted)) was 9.61 µM and 9.25 µM, the EC50 ([2]; n=2, read-out: EC50) was 9.43 µM and the Emax ([2]; n=2, read-out: Span ± SEM (Emax normalized to β-PEA)) was 46.2 ± 12%. It also gave an EC50 ([3]; read-out: EC50) of 0.321 µM, an Emax [3, 6] of 77.1 ± 4.84% and an EC50 ([4]; V184P, n=2, read-out: EC50) of 0.168 µM. For the same molecule, the Emax ([4]; V184P, n=2, read-out: Span ± SEM (Emax normalized to β-PEA)) was 88.3 ± 8.11%, the “Emax values, Mean” value ([4]; V184S (so in the source), Asenapine, per experiment, 3 replicates) was 96.3704 and 80.1474 and the EC50 ([4]; V184S (so in the source), Asenapine, per experiment, 3 replicates, read-out: pEC50 values Mean (converted)) was 0.246 µM and 0.114 µM. It also gave an EC50 ([5]; read-out: EC50) of 0.261 µM and an Emax [5, 6] of 83.2 ± 1.59%.
